Reference: patent publication US20260035387A1 (BIOGEN MA INC., priority 2022, published 2026)

system: mutant Huntington (HTT) protein; experiment: HTT Mutant HTRF iPSC assay (mHTT protein lowering); format: cell-based; conditions: human iPSC derived from a HTT patient with a poly-Q49 mutation

For `CC(C)n1ncc2ccc(NC(=O)c3cc4ccc(N5CCC(N(C)C)C5)nc4s3)cc21` (stereo not drawn) [Compound 61, 6-(3-(dimethylamino)pyrrolidin-1-yl)-N-(1-isopropyl-1H-indazol-6-yl)thieno[2,3-b]pyridine-2-carboxamide], which IC50 is on record?
Its IC50 is 1000 to 9000 nM.

`CN(C)C1CCN(c2ccc3cc(C(=O)Nc4ccc5cncn5c4)sc3n2)C1` (stereo not drawn) [Compound 62, 6-(3-(dimethylamino)pyrrolidin-1-yl)-N-(imidazo[1,5-a]pyridin-6-yl)thieno[2,3-b]pyridine-2-carboxamide] was tested. Which IC50 did it give?
Its IC50 is 1000 to 9000 nM.

How did the IC50 turn out when `CN(C)C1CCN(c2ccc3cc(C(=O)Nc4ccc5nsnc5c4)sc3n2)C1` (stereo not drawn) [Compound 63, N-(benzo[c][1,2,5]thiadiazol-5-yl)-6-(3-(dimethylamino)pyrrolidin-1-yl)thieno[2,3-b]pyridine-2-carboxamide] was run?
Its IC50 is 1000 to 9000 nM.

With `CN(C)C1CCN(c2ccc3cc(C(=O)Nc4nc5cnccn5n4)sc3n2)C1` (stereo not drawn) [Compound 64, N-([1,2,4]triazolo[1,5-a]pyrazin-2-yl)-6-(3-(dimethylamino)pyrrolidin-1-yl)thieno[2,3-b]pyridine-2-carboxamide] as the compound, how does the IC50 read?
Its IC50 is 1000 to 9000 nM.

Which IC50 does the source give for `CN(C)C1CCN(c2ccc3cc(C(=O)Nc4cc(F)c5nn(C)cc5c4)sc3n2)C1` (stereo not drawn) [Compound 65, 6-(3-(dimethylamino)pyrrolidin-1-yl)-N-(7-fluoro-2-methyl-2H-indazol-5-yl)thieno[2,3-b]pyridine-2-carboxamide] here?
The IC50 was < 100 nM.

How did the IC50 turn out when `Cc1cn2cc(NC(=O)c3cc4ccc(N5C[C@@H]6CCN(C)[C@@H]6C5)nc4s3)cc(F)c2n1` [Compound 66, 6-[(3aS,6aS)-1-methyl-2,3,3a,4,6,6a-hexahydropyrrolo[3,4-b]pyrrol-5-yl]-N-(8-fluoro-2-methyl-imidazo[1,2-a]pyridin-6-yl)thieno[2,3-b]pyridine-2-carboxamide] was run?
The IC50 was < 100 nM.

With `Cc1cn2cc(NC(=O)c3cc4ccc(N5C[C@@H](C)N(C)[C@@H](C)C5)nc4s3)cc(F)c2n1` [Compound 69, N-(8-fluoro-2-methylimidazo[1,2-a]pyridin-6-yl)-6-((3R,5S)-3,4,5-trimethylpiperazin-1-yl)thieno[2,3-b]pyridine-2-carboxamide] as the compound, how does the IC50 read?
Its IC50 is < 100 nM.

For `Cc1cn2cc(NC(=O)c3cc4ccc(N5C[C@H]6CCN(C)[C@H]6C5)nc4s3)cc(F)c2n1` [Compound 70, N-(8-fluoro-2-methylimidazo[1,2-a]pyridin-6-yl)-6-((3aR,6aR)-1-methylhexahydropyrrolo[3,4-b]pyrrol-5(1H)-yl)thieno[2,3-b]pyridine-2-carboxamide], which IC50 is on record?
The IC50 was < 100 nM.

With `Cc1nc2c(F)cc(NC(=O)c3cc4ccc(N5CCC(N(C)C)C5)nc4s3)cc2o1` (stereo not drawn) [Compound 71, 6-(3-(dimethylamino)pyrrolidin-1-yl)-N-(4-fluoro-2-methylbenzo[d]oxazol-6-yl)thieno[2,3-b]pyridine-2-carboxamide] as the compound, how does the IC50 read?
Its IC50 is < 100 nM.

With `COc1cc(NC(=O)c2cc3ccc(N4CCC(N(C)C)C4)nc3s2)cn2cc(C)nc12` (stereo not drawn) [Compound 72, 6-(3-(dimethylamino)pyrrolidin-1-yl)-N-(8-methoxy-2-methylimidazo[1,2-a]pyridin-6-yl)thieno[2,3-b]pyridine-2-carboxamide] as the compound, how does the IC50 read?
The IC50 was 100 to 1000 nM.

For `Cc1cn2cc(NC(=O)c3cc4ccc(N5CCC(N(C)C)C5)nc4s3)cc(C)c2n1` (stereo not drawn) [Compound 73, 6-(3-(dimethylamino)pyrrolidin-1-yl)-N-(2,8-dimethylimidazo[1,2-a]pyridin-6-yl)thieno[2,3-b]pyridine-2-carboxamide], which IC50 is on record?
Its IC50 is 1000 to 9000 nM.

For `COc1cc2nn(C)cc2cc1NC(=O)c1cc2ccc(N3CCC(N(C)C)C3)nc2s1` (stereo not drawn) [Compound 74, 6-(3-(dimethylamino)pyrrolidin-1-yl)-N-(6-methoxy-2-methyl-2H-indazol-5-yl)thieno[2,3-b]pyridine-2-carboxamide], which IC50 is on record?
Its IC50 is 100 to 1000 nM.

`Cc1cn2cc(NC(=O)c3cc4ccc(N5CCNCC5)nc4s3)cc(F)c2n1` [Compound 75, N-(8-fluoro-2-methylimidazo[1,2-a]pyridin-6-yl)-6-(piperazin-1-yl)thieno[2,3-b]pyridine-2-carboxamide] was tested. Which IC50 did it give?
The IC50 was < 100 nM.

`Cc1cn2cc(NC(=O)c3cc4ccc(N5CC6(CCCN(C)C6)C5)nc4s3)cc(F)c2n1` [Compound 76, N-(8-fluoro-2-methylimidazo[1,2-a]pyridin-6-yl)-6-(6-methyl-2,6-diazaspiro[3.5]nonan-2-yl)thieno[2,3-b]pyridine-2-carboxamide] was tested. Which IC50 did it give?
Its IC50 is 100 to 1000 nM.

`Cc1cn2cc(NC(=O)c3cc4ccc(N5CCN(C)CC5)nc4s3)cc(F)c2n1` [Compound 77, N-(8-fluoro-2-methylimidazo[1,2-a]pyridin-6-yl)-6-(4-methylpiperazin-1-yl)thieno[2,3-b]pyridine-2-carboxamide] was tested. Which IC50 did it give?
Its IC50 is < 100 nM.

Which IC50 does the source give for `Cc1cn2cc(NC(=O)c3cc4ccc(N5CCC(C6(N)CC6)C5)nc4s3)cc(F)c2n1` (stereo not drawn) [Compound 78, 6-(3-(1-aminocyclopropyl)pyrrolidin-1-yl)-N-(8-fluoro-2-methylimidazo[1,2-a]pyridin-6-yl)thieno[2,3-b]pyridine-2-carboxamide] here?
The IC50 was < 100 nM.

How did the IC50 turn out when `Cc1cn2cc(NC(=O)c3cc4ccc(N5CCN(C6CC6)CC5)nc4s3)cc(F)c2n1` [Compound 79, 6-(4-cyclopropylpiperazin-1-yl)-N-(8-fluoro-2-methylimidazo[1,2-a]pyridin-6-yl)thieno[2,3-b]pyridine-2-carboxamide] was run?
Its IC50 is < 100 nM.

How did the IC50 turn out when `Cc1cn2cc(NC(=O)c3cc4ccc(N5C[C@H]6CNC[C@H]6C5)nc4s3)cc(F)c2n1` [Compound 80, N-(8-fluoro-2-methylimidazo[1,2-a]pyridin-6-yl)-6-((3aR,6aS)-hexahydropyrrolo[3,4-c]pyrrol-2(1H)-yl)thieno[2,3-b]pyridine-2-carboxamide] was run?
The IC50 was 100 to 1000 nM.

For `Cc1cn2cc(NC(=O)c3cc4ccc(C5=CC6CCC(C5)N6)nc4s3)cc(F)c2n1` (stereo not drawn) [Compound 83, 6-(8-azabicyclo[3.2.1]oct-2-en-3-yl)-N-(8-fluoro-2-methylimidazo[1,2-a]pyridin-6-yl)thieno[2,3-b]pyridine-2-carboxamide], which IC50 is on record?
Its IC50 is < 100 nM.

Which IC50 does the source give for `Cc1cn2cc(NC(=O)c3cc4ccc(C5=CCCNC5)nc4s3)cc(F)c2n1` [Compound 84, N-(8-fluoro-2-methyl-imidazo[1,2-a]pyridin-6-yl)-6-(1,2,3,6-tetrahydropyridin-5-yl)thieno[2,3-b]pyridine-2-carboxamide] here?
Its IC50 is < 100 nM.

Which IC50 does the source give for `Cc1cn2cc(NC(=O)c3cc4ccc(C5CCNCC5)nc4s3)cc(F)c2n1` [Compound 85, N-(8-fluoro-2-methylimidazo[1,2-a]pyridin-6-yl)-6-(piperidin-4-yl)thieno[2,3-b]pyridine-2-carboxamide] here?
Its IC50 is < 100 nM.

For `Cc1cn2cc(NC(=O)c3cc4ncc(N5CCC(N(C)C)C5)cc4o3)cc(F)c2n1` (stereo not drawn) [Compound 86, 6-[3-(dimethylamino)pyrrolidin-1-yl]-N-(8-fluoro-2-methyl-imidazo[1,2-a]pyridin-6-yl)furo[3,2-b]pyridine-2-carboxamide], which IC50 is on record?
The IC50 was 100 to 1000 nM.

Which IC50 does the source give for `COc1cc2nn(C)cc2cc1NC(=O)c1nc2ccc(N3CCC4(CCCN4C)C3)nc2s1` (stereo not drawn) [Compound 87, N-(6-methoxy-2-methyl-2H-indazol-5-yl)-5-(1-methyl-1,7-diazaspiro[4.4]nonan-7-yl)thiazolo[5,4-b]pyridine-2-carboxamide] here?
The IC50 was < 100 nM.

How did the IC50 turn out when `COc1cc2nn(C)cc2cc1NC(=O)c1nc2ccc(N3CCC4(CN(C)C4)C3)nc2s1` [Compound 88, N-(6-methoxy-2-methyl-2H-indazol-5-yl)-5-(2-methyl-2,6-diazaspiro[3.4]octan-6-yl)thiazolo[5,4-b]pyridine-2-carboxamide] was run?
Its IC50 is < 100 nM.

For `Cc1cn2cc(NC(=O)c3nc4ccc(N5CC[C@@H](N(C)C)C5)nc4s3)cc(F)c2n1` [Compound 89, 5-[(3R)-3-(dimethylamino)pyrrolidin-1-yl]-N-(8-fluoro-2-methyl-imidazo[1,2-a]pyridin-6-yl)thiazolo[5,4-b]pyridine-2-carboxamide], which IC50 is on record?
Its IC50 is < 100 nM.

With `COc1cc2nn(C)cc2cc1NC(=O)c1nc2ccc(N3C[C@@H]4CN(C)C[C@@H]43)nc2s1` [Compound 90, N-(6-methoxy-2-methyl-2H-indazol-5-yl)-5-((1S,5R)-3-methyl-3,6-diazabicyclo[3.2.0]heptan-6-yl)thiazolo[5,4-b]pyridine-2-carboxamide] as the compound, how does the IC50 read?
The IC50 was < 100 nM.

Which IC50 does the source give for `COc1c(NC(=O)c2nc3ccc(N4CC[C@H](N(C)C)C4)nc3s2)cn2cc(C)nc2c1F` [Compound 91, (S)-5-(3-(dimethylamino)pyrrolidin-1-yl)-N-(8-fluoro-7-methoxy-2-methylimidazo[1,2-a]pyridin-6-yl)thiazolo[5,4-b]pyridine-2-carboxamide] here?
The IC50 was < 100 nM.

How did the IC50 turn out when `Cc1cn2cc(NC(=O)c3nc4ccc(N5CC[C@H](N(C)C)C5)nc4s3)cc(F)c2n1` [Compound 93, (S)-5-(3-(dimethylamino)pyrrolidin-1-yl)-N-(8-fluoro-2-methylimidazo[1,2-a]pyridin-6-yl)thiazolo[5,4-b]pyridine-2-carboxamide] was run?
Its IC50 is < 100 nM.

Which IC50 does the source give for `COc1cc(NC(=O)c2nc3ccc(N4CCC5(CCCN5C)C4)nc3s2)cn2cc(C)nc12` (stereo not drawn) [Compound 95, N-(8-methoxy-2-methylimidazo[1,2-a]pyridin-6-yl)-5-(1-methyl-1,7-diazaspiro[4.4]nonan-7-yl)thiazolo[5,4-b]pyridine-2-carboxamide] here?
Its IC50 is < 100 nM.

Which IC50 does the source give for `CCN1CCN(c2ccc3nc(C(=O)Nc4cn5cc(C)nc5c(OC)n4)sc3n2)CC1` [Compound 96, 5-(4-ethylpiperazin-1-yl)-N-(8-methoxy-2-methylimidazo[1,2-a]pyrazin-6-yl)thiazolo[5,4-b]pyridine-2-carboxamide] here?
The IC50 was < 100 nM.

How did the IC50 turn out when `Cc1cn2cc(NC(=O)c3nc4ccc(N5CCC6(CCCN6C)C5)nc4s3)cc(F)c2n1` (stereo not drawn) [Compound 98, N-(8-fluoro-2-methylimidazo[1,2-a]pyridin-6-yl)-5-(1-methyl-1,7-diazaspiro[4.4]nonan-7-yl)thiazolo[5,4-b]pyridine-2-carboxamide] was run?
Its IC50 is < 100 nM.

Which IC50 does the source give for `Cc1cn2cc(NC(=O)c3nc4ccc(N5CCC(N6CCC6)C5)nc4s3)cc(F)c2n1` (stereo not drawn) [Compound 99, 5-(3-(azetidin-1-yl)pyrrolidin-1-yl)-N-(8-fluoro-2-methylimidazo[1,2-a]pyridin-6-yl)thiazolo[5,4-b]pyridine-2-carboxamide] here?
Its IC50 is < 100 nM.

Which IC50 does the source give for `COc1nc(NC(=O)c2nc3ccc(N4CCC(N(C)C)C4)nc3s2)cn2cc(C)nc12` (stereo not drawn) [Compound 100, 5-(3-(dimethylamino)pyrrolidin-1-yl)-N-(8-methoxy-2-methylimidazo[1,2-a]pyrazin-6-yl)thiazolo[5,4-b]pyridine-2-carboxamide] here?
Its IC50 is < 100 nM.
